Patent US7241812B2, “Methods and compositions for modulating sphingosine-1-phosphate (S1P) receptor activity” (Praecis Pharmaceuticals, Inc., priority 2004, dated 2007)
pIC50: −log10 of the molar value.

Columns and labels:
S1P3 receptor = molecular target: T1, S1P3 receptor (Homo sapiens, UniProt Q99500); assay: Binding to S1P3 receptor, [33P]sphingosine 1-phosphate displacement on membranes of transfected HEK 293 T cells; settings: 2.5 pM [33P]sphingosine 1-phosphate, 60 minutes at room temperature
T1 construct: expressed in transfected cells; host or cells: HEK 293 T cells (crude membrane preparation)
Method: (§1) The ability of several of the compounds described herein to bind to the S1P1 or S1P3 receptor was also tested as follows.
(§2) For the membrane preparation, plasmid DNA was transfected into HEK 293 T cells using the FuGENE 6 transfection protocol (publicly available by Roche). Briefly, subconfluent monolayers of HEK 293 T cells were transfected with the DNA mixture containing FuGENE 6 (using a 1:3 ratio). The dishes containing the cells were then placed in a tissue culture incubator (5% CO2, 37° C.). The cells were harvested 48 hours after addition of the DNA by scraping in HME buffer (in mM: 20 HEPES, 5 MgCl2, 1 EDTA, pH 7.4, 1 mM PMSF) containing 10% sucrose on ice, and disrupted using a Dounce homogenizer. After centrifugation at 800×g, the supernatant was diluted with HME without sucrose and centrifuged at 17,000×g for 1 hour. This crude membrane pellet was resuspended in HME with sucrose, aliquoted, and snap-frozen by immersion in liquid nitrogen. The membranes were stored at −70 C. Protein concentration was determined spectroscopically by Bradford protein assay.
(§3) For the binding assay, [^33P]sphingosine 1-phosphate (obtained from American Radiolabeled Chemicals, Inc) was added to membranes in 200 μl in 96-well plates with assay concentrations of 2.5 pM [^33P]sphingosine 1-phosphate, 4 mg/ml BSA, 50 mM HEPES, pH 7.5, 100 mM NaCl, 5 mM MgCl2, and 5 μg of protein. Binding was performed for 60 minutes at room temperature with gentle mixing and terminated by collecting the membranes onto GF/B filter plates. After drying the filter plates for 10 minutes, 50 μl of Microscint 40 was added to each well, and filter-bound radionuclide was measured on a Packard Top Count. Nonspecific binding was defined as the amount of radioactivity remaining in the presence of excess of unlabeled S1P.

S1P1 receptor = molecular target: T2, S1P1 receptor (Homo sapiens, UniProt P21453); assay: Binding to S1P1 receptor, [33P]sphingosine 1-phosphate displacement on membranes of transfected HEK 293 T cells; settings: 2.5 pM [33P]sphingosine 1-phosphate, 60 minutes at room temperature
T2 construct: expressed in transfected cells; host or cells: HEK 293 T cells (crude membrane preparation)
Method: as §1, §2, §3

T1 sequence (Q99500 whole entry): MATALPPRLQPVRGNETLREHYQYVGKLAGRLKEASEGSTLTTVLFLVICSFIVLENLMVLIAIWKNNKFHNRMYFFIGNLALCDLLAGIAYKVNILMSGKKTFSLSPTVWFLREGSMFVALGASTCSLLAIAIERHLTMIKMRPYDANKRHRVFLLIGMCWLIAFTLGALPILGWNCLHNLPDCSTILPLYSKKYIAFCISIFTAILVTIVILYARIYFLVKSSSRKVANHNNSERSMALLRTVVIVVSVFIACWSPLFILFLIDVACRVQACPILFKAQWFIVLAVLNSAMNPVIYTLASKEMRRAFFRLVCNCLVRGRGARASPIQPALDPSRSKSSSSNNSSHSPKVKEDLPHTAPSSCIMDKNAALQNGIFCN
T2 sequence (P21453 whole entry): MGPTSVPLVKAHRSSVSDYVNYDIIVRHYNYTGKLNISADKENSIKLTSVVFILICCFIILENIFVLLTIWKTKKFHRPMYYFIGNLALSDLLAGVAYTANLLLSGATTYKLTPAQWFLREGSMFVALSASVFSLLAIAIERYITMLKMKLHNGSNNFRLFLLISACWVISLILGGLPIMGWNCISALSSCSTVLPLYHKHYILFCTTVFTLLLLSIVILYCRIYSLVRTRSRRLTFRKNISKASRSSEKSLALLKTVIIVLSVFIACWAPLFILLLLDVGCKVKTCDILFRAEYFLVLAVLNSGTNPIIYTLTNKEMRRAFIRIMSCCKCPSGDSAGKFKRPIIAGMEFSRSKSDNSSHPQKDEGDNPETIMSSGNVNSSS

SMILES	pIC50 (S1P3 receptor)	pIC50 (S1P1 receptor)
C[C@](N)(CO)C(=O)Nc1ccc(OCCc2ccc(-c3ccncc3)cc2)cc1 [compound 156]	5.49	8.22
COc1ccc(CCOc2ccc(NC(=O)[C@@](C)(N)CO)cc2)cc1OC [compound 34]	< 5.00	6.00
C[C@](N)(CO)C(=O)Nc1ccc(Oc2ccc(F)cc2)cc1 [compound 139]	6.66	8.60
C[C@](N)(COP(=O)(O)O)C(=O)Nc1ccc(-c2cnn(Cc3ccccc3)c2)cc1 [compound 105]	< 5.00	5.70
C[C@](N)(CO)C(=O)Nc1ccc(OCCc2ccc(-c3ccoc3)cc2)cc1 [compound 157]		8.89
C[C@](N)(CO)C(=O)Nc1ccc(OCc2ccc(-c3ccccc3)cc2)cc1 [compound 153]	6.55	9.10
COc1cccc(Oc2ccc(NC(=O)[C@@](C)(N)CO)cc2)c1 [compound 59]	7.30	8.46
C[C@](N)(CO)C(=O)Nc1ccc(-c2cccc(OCc3ccccc3)c2)cc1 [compound 147]	6.89	6.78
CCCCCCCN(C)C(=O)c1ccc(NC(=O)[C@@H](N)[C@@H](C)O)cc1 [compound 126]	< 5.00	< 5.00
C[C@](N)(CO)C(=O)Nc1ccc(-c2csc(-c3ccc(-c4ccccc4)cc3)n2)cc1 [compound 154]	< 5.00	7.68
CCCOc1cccc(-c2ccc(NC(=O)[C@@](C)(N)CO)cc2)c1 [compound 144]	< 5.00	5.62
C[C@](N)(CO)C(=O)Nc1ccc(OCCc2ccc(-c3cccs3)cc2)cc1 [compound 158]	< 6.00	6.82
CCCCc1ccc(OC[C@](C)(N)C(=O)Nc2ccc(Oc3ccc(CCCC)cc3)cc2)cc1 [compound 132]	5.46	6.78
CCCCCCCc1ccc(C(=O)N[C@@H](C)CO)cc1 [compound 127]	7.23	7.25
CC(COc1ccc(NC(=O)[C@@](C)(N)CO)cc1)c1ccc(-c2ccccc2)c(F)c1 (some centres unmarked) [compound 160]	< 6.00	6.30
CCCCCCNC(=O)c1ccc(NC(=O)[C@@H](N)[C@@H](C)O)cc1 [compound 125]		5.70
C[C@](N)(CO)C(=O)Nc1ccc(OCCc2ccc(-c3ccc(Cl)cc3)cc2)cc1 [compound 49]	5.10	6.62
CCCCc1ccc(Oc2ccc(NC(=O)[C@@](C)(N)CO)cc2)cc1 [compound 133]	< 5.00	6.19
C[C@](N)(CO)C(=O)Nc1ccc(OCCc2cccc(-c3ccccc3)c2)cc1 [compound 155]	< 5.00	< 5.00

SMILES	pIC50 (S1P3 receptor)	pIC50 (S1P1 receptor)
CCOc1ccc(-c2ccc(CCOc3ccc(NC(=O)[C@@](C)(N)CO)cc3)cc2)cc1 [compound 47]	5.30	7.64
COc1cccc(-c2ccc(NC(=O)[C@@](C)(N)CO)cc2)c1 [compound 142]	6.50	8.10
CCc1ccc(-c2ccc(CCOc3ccc(NC(=O)[C@@](C)(N)CO)cc3)cc2)cc1 [compound 46]	5.30	6.60
C[C@](N)(CO)C(=O)Nc1ccc(Oc2ccccc2)cc1 [compound 129]	5.20	7.75
C[C@](N)(CO)c1ncc(-c2ccc(OCCc3ccc(-c4ccccc4)cc3)cc2)[nH]1 [compound 148]	< 5.00	< 5.00
CC(C)Oc1cccc(-c2ccc(NC(=O)[C@@](C)(N)CO)cc2)c1 [compound 145]	5.70	8.47
CCCCCNC(=O)c1ccc(NC(=O)[C@@H](N)[C@@H](C)O)cc1 [compound 128]	6.80	9.08
C[C@](N)(CO)C(=O)Nc1ccc(Oc2ccc(Cl)cc2)cc1 [compound 138]	< 5.00	5.42
Cc1cc(NC(=O)[C@@](C)(N)CO)ccc1Oc1ccccc1 [compound 124]	6.79	7.82
CC(N)(CO)C(=O)Nc1ccc(OCCCCc2ccc(C(F)(F)F)cc2)cc1 (centres unmarked) [compound 141]	5.98	7.92
C[C@](N)(COc1ccccc1)C(=O)Nc1ccc(Oc2ccccc2)cc1 [compound 130]	< 5.00	7.05
CCCCCCCCc1ccc(CCC2(N)COP(=O)(O)OC2)cc1 (centres unmarked) [compound 45]	6.46	8.62
CCCCOc1ccc(Oc2ccc(NC(=O)[C@@](C)(N)CO)cc2)cc1 [compound 135]	5.60	7.66
COc1ccc(CCCCOc2ccc(NC(=O)[C@@](C)(N)COP(=O)(O)O)cc2)cc1 [compound 110]	5.67	7.64
CC(C)c1ccc(-c2ccc(CCOc3ccc(NC(=O)[C@@](C)(N)CO)cc3)cc2)cc1 [compound 150]	5.30	9.26
CCc1ccc(OC[C@](C)(N)C(=O)Nc2ccc(Oc3ccc(CC)cc3)cc2)cc1 [compound 131]	6.08	6.66
CCCCCCCCc1ccc(OC2CN[C@H](CO)C2)cc1 (some centres unmarked) [compound 137]	< 5.00	5.40
CCc1ccc(Oc2ccc(NC(=O)[C@@](C)(N)CO)cc2)cc1 [compound 134]	5.92	6.94
Cc1ccccc1-c1ccc(CCOc2ccc(NC(=O)[C@@](C)(N)CO)cc2)cc1 [compound 152]	< 5.00	< 5.00
